The values below come from the NIST ThermoML archive (doi:10.1016/j.fluid.2014.01.003).

A short description of data set [1]: refractive index (Na D-line) (dimensionless). The settings on record: 101.33 kPa, Liquid, Standard Abbe refractometry.
The conditions of data set [2]: 101.33 kPa, Liquid, Cone and plate viscometry.
Data set [3] is described as follows: xn = mol fraction of the nth substance listed. The settings on record: 298.2 K, 101 kPa, Liquid, Camera Imaging.
A short description of data set [4]: φn = volume fraction of the nth substance listed. The settings on record: 101 kPa, Liquid, Camera Imaging, φ1 = 0.5.

± gives the expanded uncertainty stated by the source.

Consider `CCn1cc[n+](C)c1.F[B-](F)(F)F` [1-ethyl-3-methylimidazolium tetrafluoroborate], for which the refractive index in data set [1] (298.2 K) is recorded as 1.4098 ± 0.0004; in data set [1] (308.2 K) it was 1.4082 ± 0.0004; in data set [1] (318.2 K), 1.4065 ± 0.0004; in data set [1] (328.2 K), 1.4053 ± 0.0004; in data set [1] (338.2 K), 1.4035 ± 0.0004. The viscosity was found to be 45 ± 1 mPa·s in data set [2] (298.2 K); 27 ± 1 mPa·s in data set [2] (308.2 K); 19 ± 1 mPa·s in data set [2] (318.2 K); 14 ± 1 mPa·s in data set [2] (328.2 K); 11 ± 1 mPa·s in data set [2] (338.2 K).

Regarding `OCCO` [1,2-ethanediol] + O, the binary diffusion coefficient came to 1.23e-09 m2/s in data set [3] (x1 = 0.0323); 8.36e-10 m2/s in data set [3] (x1 = 0.0698); 7.12e-10 m2/s in data set [3] (x1 = 0.114); 6.38e-10 m2/s in data set [3] (x1 = 0.1667); 5.86e-10 m2/s in data set [3] (x1 = 0.242); 5.02e-10 m2/s in data set [3] (x1 = 0.3104). For the same compound, the binary diffusion coefficient in data set [3] (x1 = 0.4119) stood at 4.33e-10 m2/s; in data set [3] (x1 = 0.5456) it was 3.2e-10 m2/s; in data set [3] (x1 = 0.7298), 2.84e-10 m2/s.

For the compound `O` [water], the refractive index in data set [1] (298.2 K) was determined as 1.3325 ± 0.0005; in data set [1] (308.2 K), 1.3313 ± 0.0005; in data set [1] (318.2 K), 1.3299 ± 0.0005; in data set [1] (328.2 K), 1.3282 ± 0.0005; in data set [1] (338.2 K), 1.3275 ± 0.0005. In addition, the viscosity is 0.9 mPa·s in data set [2] (298.2 K); 0.72 mPa·s in data set [2] (308.2 K); 0.61 mPa·s in data set [2] (318.2 K); 0.5 mPa·s in data set [2] (328.2 K); 0.43 mPa·s in data set [2] (338.2 K).

For the compound `CCCCn1cc[n+](C)c1.O=[N+]([O-])[O-]` [1-butyl-3-methylimidazolium nitrate] + O, the binary diffusion coefficient in data set [4] (298.2 K) amounted to 3.13e-10 m2/s.

As to `CCCCn1cc[n+](C)c1.N#CN=C=[N-]` [1-butyl-3-methylimidazolium dicyanamide] + O, the binary diffusion coefficient in data set [4] (298.2 K) is 2.53e-10 m2/s.

Turning to `CCn1cc[n+](C)c1.F[B-](F)(F)F` [1-ethyl-3-methylimidazolium tetrafluoroborate] + O, the binary diffusion coefficient worked out at 3.42e-10 m2/s in data set [4] (298.2 K); 4.65e-10 m2/s in data set [4] (308.2 K); 5.57e-10 m2/s in data set [4] (318.2 K); 6.72e-10 m2/s in data set [4] (328.2 K); 7.89e-10 m2/s in data set [4] (338.2 K).

On to `CCn1cc[n+](C)c1.[O-][Cl+3]([O-])([O-])[O-]` [1-ethyl-3-methylimidazolium perchlorate] + O, for which, in data set [4] (298.2 K), the binary diffusion coefficient was determined as 1.93e-10 m2/s.

Take `Cn1cc[n+](C)c1.F[B-](F)(F)F` [1,3-dimethyl-1H-imidazolium tetrafluoroborate]: the refractive index in data set [1] (298.2 K) was determined as 1.4023 ± 0.0004; in data set [1] (318.2 K) it was 1.3993 ± 0.0004; in data set [1] (328.2 K) it was 1.3988 ± 0.0004; in data set [1] (338.2 K) it was 1.3975 ± 0.0004. The viscosity came to 34 ± 1 mPa·s in data set [2] (298.2 K); 22 ± 1 mPa·s in data set [2] (308.2 K); 15 ± 1 mPa·s in data set [2] (318.2 K); 11 ± 1 mPa·s in data set [2] (328.2 K); 7.8 ± 1 mPa·s in data set [2] (338.2 K).

Consider `CCCCn1cc[n+](C)c1.F[B-](F)(F)F` [1-butyl-3-methylimidazolium tetrafluoroborate] + O, for which the binary diffusion coefficient is 1.24e-10 m2/s in data set [4] (298.2 K); 2.56e-10 m2/s in data set [4] (308.2 K); 3.83e-10 m2/s in data set [4] (318.2 K); 5.13e-10 m2/s in data set [4] (328.2 K); 6.45e-10 m2/s in data set [4] (338.2 K).

Turning to `CCCCn1cc[n+](C)c1.F[B-](F)(F)F` [1-butyl-3-methylimidazolium tetrafluoroborate], the refractive index in data set [1] (298.2 K) was determined as 1.4184 ± 0.0004; in data set [1] (308.2 K), 1.4163 ± 0.0004; in data set [1] (318.2 K), 1.4142 ± 0.0004; in data set [1] (328.2 K) it was 1.4125 ± 0.0004; in data set [1] (338.2 K), 1.4106 ± 0.0004. The viscosity came out at 146 ± 4 mPa·s in data set [2] (298.2 K); 76 ± 2 mPa·s in data set [2] (308.2 K); 45 ± 1 mPa·s in data set [2] (318.2 K); 29 ± 1 mPa·s in data set [2] (328.2 K); 21 ± 1 mPa·s in data set [2] (338.2 K).

On to `CCn1cc[n+](C)c1.N#CN=C=[N-]` [1-ethyl-3-methylimidazolium dicyanamide] + O, for which, in data set [4] (298.2 K), the binary diffusion coefficient amounted to 7.25e-10 m2/s.

Turning to `Cn1cc[n+](C)c1.F[B-](F)(F)F` [1,3-dimethyl-1H-imidazolium tetrafluoroborate] + O, the binary diffusion coefficient in data set [4] (298.2 K) is 6.87e-10 m2/s; in data set [4] (308.2 K), 7.74e-10 m2/s; in data set [4] (318.2 K), 8.45e-10 m2/s; in data set [4] (328.2 K) it was 9.62e-10 m2/s; in data set [4] (338.2 K), 1.06e-09 m2/s.

In general, refractive index refers to a measure of how strongly the sample bends light. As usually defined, the viscosity is the internal friction of a fluid under shear.
